Reference: paper PMC4070292 (Molecular nutrition & food research, 2012)

Columns and labels:
TNF-α = assay: LPS-induced TNF-α release in macrophages; type: cell-based, murine; settings: 100 ng/mL LPS
NF-κB = NF-κB SEAP reporter gene assay in LPS-stimulated macrophages; type: cell-based, murine; settings: 16 h; for decrease of NF-κB activity versus control / effect on LPS-induced NF-κB activity: LPS; for decrease of NF-κB activity versus control: 50 μM; for effect on LPS-induced NF-κB activity: doses as high as 100 μM; for effect on NF-κB activity without LPS: compound alone with diluent control; for effect on LPS-stimulated NF-κB activity: 100 ng/mL LPS, 25 μM
[1] = diet containing 0.2% pure apigenin for 7 days ref 47; cited from earlier work
[2] = rats, 14 mg luteolin/kg body weight by gavage, after 1 h ref 48; cited from earlier work

SMILES	effect on LPS-induced TNF-α (TNF-α; 10–25 μM, data not shown)	effect on LPS-induced TNF-α (TNF-α; 8 h, doses as high as 100 μM)	decrease of NF-κB activity versus control (NF-κB)	effect on LPS-induced NF-κB activity (NF-κB)	effect on NF-κB activity without LPS (NF-κB)	apigenin in mouse plasma [1] [nM]	effect on LPS-induced TNF-α (TNF-α; 8 h, doses as low as 10 μM)	effect on LPS-stimulated NF-κB activity (NF-κB)	peak plasma concentration [2] [µM]
O=c1cc(-c2ccc(O)cc2)oc2cc(O[C@@H]3O[C@H](CO)[C@@H](O)[C@H](O)[C@H]3O)cc(O)c12 [apigenin 7-O-glucoside]	no effect	no effect	not statistically significant	no effect	no effect	–	–	–	–
O=c1cc(-c2ccc(O)cc2)oc2cc(O)cc(O)c12 [apigenin]	–	–	–	–	–	90	significant reduction	–	–
COc1cc(-c2cc(=O)c3c(O)cc(O)cc3o2)ccc1O [chrysoeriol, Chrysoeriol]	–	–	–	–	no effect	–	significant reduction	significantly reduced	–
O=c1cc(-c2ccc(O)c(O)c2)oc2cc(O[C@@H]3O[C@H](CO)[C@@H](O)[C@H](O)[C@H]3O)cc(O)c12 [luteolin 7-O-glucoside]	no effect	no effect	not statistically significant	no effect	no effect	–	–	–	–
O=c1cc(-c2ccc(O)c(O)c2)oc2cc(O)cc(O)c12 [luteolin]	–	–	–	–	no effect	–	significant reduction	significantly reduced	6.9
